Laboratory results: ChEMBL document CHEMBL3611985, “Synthesis and structure-activity relationships of novel 9-oxime acylides with improved bactericidal activity” (2015)
Values after ≈ are worked out from the molar mass of the structure shown.

What was measured:
Assay type in all cases: functional
Streptococcus pyogenes [1] = assay: Antimicrobial activity against Streptococcus pyogenes 12-207 expressing mef incubated for 20 to 24 hrs by two-fold microbroth dilution method
Streptococcus pneumoniae [2] = assay: Antimicrobial activity against erythromycin-susceptible Streptococcus pneumoniae ATCC 49619 incubated for 20 to 24 hrs by two-fold microbroth dilution method
Haemophilus influenzae [3] = assay: Bactericidal activity against azithromycin-susceptible and ampicillin-resistant Haemophilus influenzae 11P037 incubated for 20 to 24 hrs followed by sub-culturing for 24 hrs in absence of compound
Streptococcus pyogenes [4] = assay: Bactericidal activity against Streptococcus pyogenes 01-968 expressing inducible ermA incubated for 20 to 24 hrs followed by sub-culturing for 24 hrs in absence of compound
Streptococcus pyogenes [5] = assay: Antimicrobial activity against Streptococcus pyogenes 01-968 expressing inducible ermA incubated for 20 to 24 hrs by two-fold microbroth dilution method
Moraxella catarrhalis [6] = assay: Ratio of MBC to MIC against erythromycin-susceptible Moraxella catarrhalis 11B366
Staphylococcus aureus [7] = assay: Antimicrobial activity against methicillin-resistant Staphylococcus aureus PU32 expressing inducible ermA incubated for 20 hrs by two-fold microbroth dilution method; conditions: PU32, 20 h
Moraxella catarrhalis [8] = assay: Bactericidal activity against erythromycin-susceptible Moraxella catarrhalis 11B366 incubated for 20 hrs followed by sub-culturing for 24 hrs in absence of compound
Moraxella catarrhalis [9] = assay: Antimicrobial activity against erythromycin-susceptible Moraxella catarrhalis 11B366 incubated for 20 hrs by two-fold microbroth dilution method; conditions: 11B366, 20 h
Haemophilus influenzae [10] = assay: Antimicrobial activity against azithromycin-susceptible and ampicillin-resistant Haemophilus influenzae 11P037 incubated for 20 to 24 hrs by two-fold microbroth dilution method
Streptococcus pyogenes [11] = assay: Ratio of MBC to MIC against Streptococcus pyogenes 12-207 expressing mef
Staphylococcus aureus [12] = assay: Antimicrobial activity against methicillin-resistant Staphylococcus aureus PU20 expressing constitutive ermC incubated for 20 hrs by two-fold microbroth dilution method; conditions: PU20, 20 h
Staphylococcus aureus [13] = assay: Ratio of MBC to MIC against methicillin-resistant Staphylococcus aureus PU32 expressing inducible ermA
Staphylococcus aureus [14] = assay: Bactericidal activity against methicillin-resistant Staphylococcus aureus PU32 expressing inducible ermA incubated for 20 hrs followed by sub-culturing for 24 hrs in absence of compound
Haemophilus influenzae [15] = assay: Ratio of MBC to MIC against azithromycin-susceptible and ampicillin-resistant Haemophilus influenzae 11P037
Streptococcus pneumoniae [16] = assay: Antimicrobial activity against penicillin-susceptible Streptococcus pneumoniae PU09 incubated for 20 to 24 hrs by two-fold microbroth dilution method
Streptococcus pyogenes [17] = assay: Bactericidal activity against Streptococcus pyogenes 12-207 expressing mef incubated for 20 to 24 hrs followed by sub-culturing for 24 hrs in absence of compound
Streptococcus pneumoniae [18] = assay: Antimicrobial activity against Streptococcus pneumoniae 07P390 expressing constitutive ermB incubated for 20 to 24 hrs by two-fold microbroth dilution method
Streptococcus pneumoniae [19] = assay: Bactericidal activity against penicillin-susceptible Streptococcus pneumoniae PU09 incubated for 20 to 24 hrs followed by sub-culturing for 24 hrs in absence of compound
Staphylococcus aureus [20] = assay: Ratio of MBC to MIC against methicillin-resistant Staphylococcus aureus PU20 expressing constitutive ermC
Streptococcus pyogenes [21] = assay: Ratio of MBC to MIC against Streptococcus pyogenes 01-968 expressing inducible ermA
Streptococcus pneumoniae [22] = assay: Bactericidal activity against erythromycin-susceptible Streptococcus pneumoniae ATCC 49619 incubated for 20 to 24 hrs followed by sub-culturing for 24 hrs in absence of compound
Streptococcus pneumoniae [23] = assay: Ratio of MBC to MIC against erythromycin-susceptible Streptococcus pneumoniae ATCC 49619
Staphylococcus aureus [24] = assay: Bactericidal activity against methicillin-resistant Staphylococcus aureus PU20 expressing constitutive ermC incubated for 20 hrs followed by sub-culturing for 24 hrs in absence of compound
Streptococcus pneumoniae [25] = assay: Ratio of MBC to MIC against penicillin-susceptible Streptococcus pneumoniae PU09

Structure (SMILES)	MIC (Streptococcus pyogenes [1]) [µg/mL]	MIC (Streptococcus pneumoniae [2]) [µg/mL]	MBC (Haemophilus influenzae [3]) [µg/mL]	MBC (Streptococcus pyogenes [4]) [µg/mL]	MIC (Streptococcus pyogenes [5]) [µg/mL]	Ratio (Moraxella catarrhalis [6])	MIC (Staphylococcus aureus [7]) [µg/mL]	MBC (Moraxella catarrhalis [8]) [µg/mL]	MIC (Moraxella catarrhalis [9]) [µg/mL]	MIC (Haemophilus influenzae [10]) [µg/mL]	Ratio (Streptococcus pyogenes [11])	MIC (Staphylococcus aureus [12]) [µg/mL]	Ratio (Staphylococcus aureus [13])	MBC (Staphylococcus aureus [14]) [µg/mL]	Ratio (Haemophilus influenzae [15])	MIC (Streptococcus pneumoniae [16]) [µg/mL]	MBC (Streptococcus pyogenes [17]) [µg/mL]	MBC (Streptococcus pneumoniae [19]) [µg/mL]	Ratio (Staphylococcus aureus [20])	Ratio (Streptococcus pyogenes [21])	also measured
CC[C@H]1OC(=O)[C@H](C)C(=O)[C@H](C)[C@@H](O[C@@H]2O[C@H](C)C[C@H](N(C)C)[C@H]2O)[C@](C)(OC)C[C@@H](C)C(=O)[C@H](C)[C@H]2N(CCCCn3cnc(-c4cccnc4)c3)C(=O)O[C@]12C [TELITHROMYCIN]	0.5 (≈ 0.616 µM)	0.031 (≈ 0.0382 µM)	4 (≈ 4.93 µM)	0.125 (≈ 0.154 µM)	2 (≈ 2.46 µM)	1	0.25 (≈ 0.308 µM)	0.25 (≈ 0.308 µM)	0.25 (≈ 0.308 µM)	2 (≈ 2.46 µM)	2	> 64	>8	> 1	4	0.25 (≈ 0.308 µM)	1 (≈ 1.23 µM)				MIC (Streptococcus pneumoniae [18]): 0.062 µg/mL (≈ 0.0764 µM)
CC[C@H]1OC(=O)[C@H](C)[C@@H](OC(=O)Cc2ccccn2)[C@H](C)[C@@H](O[C@@H]2O[C@H](C)C[C@H](N(C)C)[C@H]2O)[C@](C)(OC)C[C@@H](C)/C(=N\OCC#Cc2ccc(-n3ccnc3)cc2)[C@H](C)[C@H]2OC(=O)O[C@@]21C	1 (≈ 1.08 µM)	0.125 (≈ 0.134 µM)		> 0.5	0.062 (≈ 0.0667 µM)	2	2 (≈ 2.15 µM)	8 (≈ 8.6 µM)	4 (≈ 4.3 µM)	> 256	8	32 (≈ 34.4 µM)	>8	> 16		2 (≈ 2.15 µM)	8 (≈ 8.6 µM)	4 (≈ 4.3 µM)	2	>8	MBC (Streptococcus pneumoniae [22]): 0.25 µg/mL (≈ 0.269 µM); Ratio (Streptococcus pneumoniae [23]): 2; MBC (Staphylococcus aureus [24]): 64 µg/mL (≈ 68.8 µM); Ratio (Streptococcus pneumoniae [25]): 2
CC[C@H]1OC(=O)[C@H](C)[C@@H](O[C@H]2C[C@@](C)(OC)[C@@H](O)[C@H](C)O2)[C@H](C)[C@@H](O[C@@H]2O[C@H](C)C[C@H](N(C)C)[C@H]2O)[C@](C)(OC)C[C@@H](C)C(=O)[C@H](C)[C@@H](O)[C@]1(C)O [CLARITHROMYCIN]	16 (≈ 21.4 µM)	0.062 (≈ 0.0829 µM)	8 (≈ 10.7 µM)	> 8	4 (≈ 5.35 µM)	2	32 (≈ 42.8 µM)	0.25 (≈ 0.334 µM)	0.125 (≈ 0.167 µM)	4 (≈ 5.35 µM)	2	> 64	>2	> 16	8	2 (≈ 2.67 µM)	32 (≈ 42.8 µM)			>8	MIC (Streptococcus pneumoniae [18]): > 64 µg/mL
CC[C@H]1OC(=O)[C@H](C)[C@@H](OC(=O)Cc2ccccn2)[C@H](C)[C@@H](O[C@@H]2O[C@H](C)C[C@H](N(C)C)[C@H]2O)[C@](C)(OC)C[C@@H](C)/C(=N\OCC#Cc2cnc(N)nc2)[C@H](C)[C@H]2OC(=O)O[C@@]21C	0.25 (≈ 0.284 µM)	0.016 (≈ 0.0182 µM)	64 (≈ 72.6 µM)	0.5 (≈ 0.568 µM)	0.25 (≈ 0.284 µM)	2	1 (≈ 1.14 µM)	4 (≈ 4.54 µM)	2 (≈ 2.27 µM)	8 (≈ 9.08 µM)	>8	128 (≈ 145 µM)	8	8 (≈ 9.08 µM)	8	0.5 (≈ 0.568 µM)	> 2	1 (≈ 1.14 µM)	2	2	MBC (Streptococcus pneumoniae [22]): 0.031 µg/mL (≈ 0.0352 µM); Ratio (Streptococcus pneumoniae [23]): 2; MBC (Staphylococcus aureus [24]): 256 µg/mL (≈ 291 µM); Ratio (Streptococcus pneumoniae [25]): 2
CC[C@H]1OC(=O)[C@H](C)[C@@H](OC(=O)Cc2ccccn2)[C@H](C)[C@@H](O[C@@H]2O[C@H](C)C[C@H](N(C)C)[C@H]2O)[C@](C)(OC)C[C@@H](C)/C(=N\OCC#Cc2cccnc2)[C@H](C)[C@H]2OC(=O)O[C@@]21C	0.125 (≈ 0.145 µM)	≤ 0.008	> 64	0.25 (≈ 0.289 µM)	0.25 (≈ 0.289 µM)	2	1 (≈ 1.16 µM)	4 (≈ 4.62 µM)	2 (≈ 2.31 µM)	8 (≈ 9.25 µM)	>8	128 (≈ 148 µM)	>8	> 8	>8	0.5 (≈ 0.578 µM)	> 1	1 (≈ 1.16 µM)	1	1	MBC (Streptococcus pneumoniae [22]): 0.008 µg/mL (≈ 0.00925 µM); Ratio (Streptococcus pneumoniae [23]): >=1; MBC (Staphylococcus aureus [24]): 128 µg/mL (≈ 148 µM); Ratio (Streptococcus pneumoniae [25]): 2
CC[C@H]1OC(=O)[C@H](C)C(=O)[C@H](C)[C@@H](O[C@@H]2O[C@H](C)C[C@H](N(C)C)[C@H]2O)[C@](C)(OC)C[C@@H](C)/C(=N\OC/C=C/c2cnc3ccccc3c2)[C@H](C)[C@H]2OC(=O)O[C@@]21C	0.016 (≈ 0.0201 µM)	≤ 0.008	> 64	> 0.5	0.062 (≈ 0.0779 µM)	1	1 (≈ 1.26 µM)	2 (≈ 2.51 µM)	2 (≈ 2.51 µM)	8 (≈ 10.1 µM)	>8	32 (≈ 40.2 µM)	>8	> 8	>8	0.25 (≈ 0.314 µM)	> 0.125	0.5 (≈ 0.628 µM)	1	>8	MBC (Streptococcus pneumoniae [22]): 0.031 µg/mL (≈ 0.0389 µM); Ratio (Streptococcus pneumoniae [23]): >=4; MBC (Staphylococcus aureus [24]): 32 µg/mL (≈ 40.2 µM); Ratio (Streptococcus pneumoniae [25]): 2
CC[C@H]1OC(=O)[C@H](C)[C@@H](OC(=O)Cc2ccccn2)[C@H](C)[C@@H](O[C@@H]2O[C@H](C)C[C@H](N(C)C)[C@H]2O)[C@](C)(OC)C[C@@H](C)/C(=N\OCC#Cc2ccc3nccnc3c2)[C@H](C)[C@H]2OC(=O)O[C@@]21C	0.062 (≈ 0.0677 µM)	≤ 0.008	> 128	0.25 (≈ 0.273 µM)	0.031 (≈ 0.0338 µM)	1	1 (≈ 1.09 µM)	2 (≈ 2.18 µM)	2 (≈ 2.18 µM)	16 (≈ 17.5 µM)	>8	128 (≈ 140 µM)	>8	> 8	>8	0.5 (≈ 0.546 µM)	> 0.5	1 (≈ 1.09 µM)	1	8	MBC (Streptococcus pneumoniae [22]): 0.008 µg/mL (≈ 0.00873 µM); Ratio (Streptococcus pneumoniae [23]): >=1; MBC (Staphylococcus aureus [24]): 128 µg/mL (≈ 140 µM); Ratio (Streptococcus pneumoniae [25]): 2
